Assay results reported in US12357608B2, “Methods and compositions utilizing RRx-001 combination therapy for radioprotection” (priority 2018, dated 2025).

Columns and labels:
CD2F1 male mice = assay: Complete blood count with differential and reticulocytes after sublethal TBI or sham irradiation; format: in vivo; conditions: 7 Gy TBI
Description: To determine the pathophysiological effects of RRx-001 on hematopoietic protection in mice, CD2F1 male mice were treated with 10 mg/kg RRx-001 or the vehicle control 24 hours prior to a sublethal dose of TBI (7 Gy at 0.6 Gy/min using High-level Cobalt-60) or sham irradiation (day 0) according to the table below.
CD2F1 male mice (n=3/group) were divided into 4 experimental groups: 1) irradiation+vehicle, 2) irradiation+RRx-001, 3) sham-irradiation+vehicle and 4) sham-irradiation+RRx-001. Either 10 mg/kg RRx-001 or the vehicle control were IP injected 24 hours prior to either irradiation or sham-irradiation (day 0). On days 2, 7, 14, 21, and 28 post-irradiation (day 0) mice were humanely euthanized. Blood, bone marrow, and sternebrae were then collected. This experiment was performed in duplicate for a total of n=6 mice/group/time point.
Post-irradiation whole blood was obtained by terminal cardiocentesis. Blood samples were immediately transferred into EDTA tubes (Sarstedt Inc., Newton, NC) and gently rotated until the time of analysis. The tubes were analyzed for a complete blood count with differential and reticulocytes using the ADVIA 2120 (Siemens Medical Solutions Diagnostics, Dublin, Ireland), and Microsoft software version 5.9 (Microsoft Corp., Redmond, WA) to generate the data.
Blood parameters were compared between treatment groups using an analysis of variance (ANOVA). The Wilcoxon test was also used for sensitivity and to potentially address data departures from normality. A longitudinal mixed model repeated measures was also implemented to provide a more complete data analysis of the sham-irradiated treatment groups' difference in overall time profile mean based on the blood parameters. Bone marrow data (megakaryocytes and grade) statistical analysis was carried out using a parametric test consisting of a general linear model analysis of variance (ANOVA with factors consisting of treatment group and pathologist) and the Kruskal-Wallis nonparametric test. The statistical data analysis was carried out using R software (Version 3.4.3, 2016) and the graphs made using GraphPad Prism version 7.03 (GraphPad Software, La Jolla, CA).

[1] = tested on: male Syrian Golden Hamsters; assay: Oral mucositis induced by acute radiation in hamsters; format: in vivo
Description: Fifty-six (56) male Syrian Golden Hamsters were used in the study. Mucositis was induced by administering an acute radiation dose of 40 Gy directed to the left buccal cheek pouch on Day 0 at a rate of 2-2.5 Gy/min. Mucositis was evaluated clinically starting on Day 6 and continuing on alternate days until Day 28. Hamsters reaching a mucositis severity score of 4 or higher received buprenorphine (0.5 mg/kg) SC twice a day for 48 hours or until score dropped below 4.
Dosing was scheduled as follows: for animals in Groups 1-4, animals were dosed with RRx-001 (1, 3, or 10 mg/kg) or vehicle (1:2 DMA:PEG400 vol:vol ratio) once a day (QD) on Days −4, −1, 1, 4, 7, 11, 14, 18, 21, and 25 via intraperitoneal (IP) administration; animals in Groups 5-7 were dosed QD with RRx-001 (1, 3, or 10 mg/kg) on Days −4, −1, 1, 8, 15, and 22.
The significance of differences observed between the control and treatment group was evaluated by comparing the days with mucositis scores≥3 and <3 between groups using chi-square analysis. […] The percentage of animal days with a score of ≥3 in the Vehicle Group was 57.29%. […] There were numerous days where animals dosed with RRx-001 had percent ulceration days that were lower (which can be interpreted as ameliorative of disease severity) in comparison to vehicle-dosed animals.
An analysis of the severity of mucositis was performed using the Mann-Whitney rank sum analysis to compare the visual mucositis scores for the treatment group to the Vehicle control group on each day of evaluation. In this analysis, 2 days of significant reduction in the mucositis score are generally required before it is regarded as meaningful.
This evaluation was intended to clarify which days of treatment had its maximal impact on the course of ulcerative mucositis. There were numerous days where animals dosed with RRx-001 had percent ulceration days that were lower (which can be interpreted as ameliorative of disease severity) in comparison to vehicle-dosed animals.

[2] = days 2 and 21 post-irradiation, vs vehicle control

O=C(CBr)N1CC([N+](=O)[O-])([N+](=O)[O-])C1 [RRx-001, 2-bromo-1-(3,3-dinitroazetidin-1-yl)ethan-1-one]
% RETIC (CD2F1 male mice; day 14, vs control mice): significantly increased
ALC counts (CD2F1 male mice; day 14, vs controls): significantly increased
WBC counts (CD2F1 male mice; day 14, vs controls): significantly increased
% HCT (CD2F1 male mice; day 14, vs irradiated control): significantly increased
% RETIC (CD2F1 male mice; day 28, vs vehicle controls): significantly increased
absolute lymphocyte count (ALC) (CD2F1 male mice; [2]): No significant difference
absolute neutrophil count (ANC) (CD2F1 male mice; [2]): No significant difference
percent hematocrit (% HCT) (CD2F1 male mice; [2]): No significant difference
percent reticulocytes (% RETIC) (CD2F1 male mice; [2]): No significant difference
platelets (PLT) (CD2F1 male mice; [2]): No significant difference
white blood cells (WBC) (CD2F1 male mice; [2]): No significant difference
ANC (CD2F1 male mice; days 7 and 14, vs control): significantly increased
PLT (CD2F1 male mice; days 7 and 14, vs control): significantly increased
red blood cells and hemoglobin (CD2F1 male mice; irradiated RRx-001 vs irradiated vehicle group): not significantly different
white blood cells and red blood cell production (CD2F1 male mice; irradiated mice vs irradiated vehicle control): significant increase
daily mucositis scores compared to the Vehicle control group ([1]; 1 mg/kg IP): multiple days of significant improvement in mucositis scores
daily mucositis scores compared to the Vehicle control group ([1]; 10 mg/kg IP): multiple days of significant improvement in mucositis scores
mean daily mucositis scores ([1]; 10 mg/kg IP, Group 2, dosed Days −4, −1, 1, 40 Gy): modest but significant enhancement of disease healing
body weight by study termination ([1]; 10 mg/kg IP, Groups 2 and 5, after cessation of dosing): rebounded back to be in line with other groups
tolerability of the highest dose ([1]; 10 mg/kg IP, Groups 2 and 5, dosing discontinued after Day 1): adverse side effects
body weight ([1]; 10 mg/kg IP, Groups 2 and 5, during study): lower weights than all other groups
percent ulceration ([1]; 10 mg/kg, Groups 2 and 5, only dosed on Days −4, −1, and 1): best response in decreasing percent ulceration
percent days of ulceration, twice weekly dosing vs one time per week ([1]; 3 and 1 mg/kg, 1 mg/kg, Group 4 vs Group 7): more beneficial effects on percent days of ulceration
percentage of days with a mucositis score of ≥3 in comparison to the Vehicle Group ([1]; Group 2, 10 mg/kg on Days −4, −1, 1, p<0.01): statistically lower
body weight ([1]; all groups except Groups 2 and 5 (1 and 3 mg/kg IP)): steadily gained weight
mean daily mucositis scores ([1]; all other treatment groups (Groups 3-7)): tracked fairly close to each other, and with Vehicle dosed controls
percent ulceration days in comparison to vehicle-dosed animals ([1]; numerous days): lower
